# Measured values: patent publication US20170107486A1, “HEPATOCYTE PRODUCTION VIA FORWARD PROGRAMMING BY COMBINED GENETIC AND CHEMICAL ENGINEERING” (Cellular Dynamics International, Inc., priority 2014, published 2017)
# Tests used:
# [1] = system: human rtTET-expressing ESCs transfected with GFH, H1ANR3 and TBX3; assay: Hepatic programming efficiency, albumin (ALB) flow analysis; type: cell-based; settings: for % ALB-expressing cells (hepatic programming efficiency): 0.5 μM added alone along with doxycycline between day 1 and day 7 post-plating, ALB flow analysis on day 13, FIG. 6
# Excerpt: Genes that are either implicated in hepatic differentiation during normal mammalian development or enriched in adult hepatocytes were cloned into the PiggyBac vector (FIG. 3) under the control of the […] promoter (Table 1). To find transcription factors that are able to directly impose mature hepatic fate upon human ESCs, various combinations of transgene-expressing PiggyBac vectors along with the hPBase-expressing vector were introduced into the human ESCs having constitutive expression of rtTET through nucleofection (Minis Ingenio Electroporation solution: cat# MIR50114; program: Amaxa B-016). Nucleofected human ESCs were cultured on matrigel in mTeSR1 (Stem Cell Technologies). Following geneticin (100 μg/ml) selection for stable genomic transgene integration (cells were passaged at lease once prior to differentiation), human ESCs were individualized by accutase treatment and plated to matrigel-coated 12-well plates. Doxycycline (1 μg/ml) was added the next day to induce transgene expression in Hepatocyte Maintenance Medium (HMM, Lonza) supplemented with 0.5 μg/ml insulin, 0.1 μM dexamethasone (dex), and 50 ng/ml Oncostatin M (OSM). After transgene induction for the appropriate number of days, doxycycline was removed, and cells were allowed to transition to hepatocyte-like cells and were maintained in HMM supplemented with 0.5 μg/ml insulin, 0.1 μM dex, and 50 ng/ml OSM prior to characterization. Where appropriate, small molecules, such as MEK inhibitor PD0325901, […] kinase/activin receptor like kinase (ALK5) inhibitor A 83-01, and an analogue of the natural signaling molecule cyclic AMP 8-Bromoadenosine 3',5'-cyclic monophosphate (8-Br-cAMP), were added during hepatic programming. To determine the effect of MEK inhibitor PD0325901 (P) and TGFβ kinase/activin receptor like kinase (ALK5) inhibitor A 83-01 (A) on hepatic programming efficiency, human rtTET-expressing ESCs transfected with […]3 and TBX3 were plated on matrigel-coated 12-well plates at about 0.2×10^6 cells/well in mTeSR supplemented with 10 μM HA100 on day 0. PD0325901 (0.5 μM), A 83-01 (0.5 μM) or both were added along with doxycycline between day 1 and day 7 post-plating. Cells were collected for albumin (ALB) flow analysis on day 13 post-plating. […] To determine the effect of cyclic AMP analog 8-Br-cAMP on hepatic programming, human rtTET-expressing ESCs transfected with […]3 and TBX3 were plated on matrigel-coated 12-well plates at about 0.2×10^6 cells/well in mTeSR supplemented with 10 μM HA100 on day 0. Doxycycline (1 μg/ml), P and A were added between day 1 and day 7 post-plating. Following the removal of doxycycline, P and A on day 7, different concentrations of 8-Br-cAMP were added to promote hepatic transition. Cells were collected for ALB flow analysis on day 13 post-plating.
# MEK1 and MEK2 = settings: Bain et al., 2007; cited from earlier work
smiles,measurement,setting,value
"Nc1ncnc2c1nc(Br)n2[C@@H]1O[C@@H]2COP(=O)(O)O[C@H]2[C@H]1O [8-Br-cAMP, 8-Bromoadenosine 3′,5′-cyclic monophosphate]",saturation concentration for improvement of hepatic programming,"[1]; added from day 7 after removal of doxycycline, P and A, ALB flow analysis day 13, FIG. 8",~200 µM
same,hepatic programming (ALB flow analysis),"[1]; different concentrations added from day 7 after removal of doxycycline, P and A, ALB flow analysis day 13, FIG. 8",significantly improved
Cc1cccc(-c2nn(C(=S)Nc3ccccc3)cc2-c2ccnc3ccccc23)n1 [A 83-01],% ALB-expressing cells (hepatic programming efficiency),[1],significantly improves
O=C(NOCC1CC1)c1ccc(F)c(F)c1Nc1ccc(I)cc1Cl [PD184352],specificity and potency compared to other known MEK inhibitors,MEK1 and MEK2,high degree of specificity and potency
O=C(NOC[C@H](O)CO)c1ccc(F)c(F)c1Nc1ccc(I)cc1F [PD0325901],% ALB-expressing cells (hepatic programming efficiency),[1],significantly improves
